Test results from US20220331414A1, “LIPID COMPOUNDS AND LIPID NANOPARTICLE COMPOSITIONS” (Suzhou Abogen Biosciences Co., Ltd., priority 2020, published 2022).

Assays:
[1] = Apparent pKa of LNP formulations by TNS fluorescence assay; settings: LNP cationic lipid/DSPC/cholesterol/DMG-PEG 50/10/38.5/1.5 mol %, pH 3 to 9
Experimental: TNS was prepared as a 300 uM stock solution in distilled water. LNP formulations were diluted to 0.1 mg/ml total lipid in 3 mL of buffered solutions containing 50 mM sodium citrate, 50 mM sodium phosphate, 50 mM sodium borate, and 30 mM sodium chloride where the pH ranged from 3 to 9. An aliquot of the TNS solution was added to give a final concentration of 0.1 mg/ml and following vortex mixing fluorescence intensity was measured at room temperature in a Molecular Devices Spectramax iD3 spectrometer using excitation and mission wavelengths of 325 nm and 435 nm. A sigmoidal best fit analysis was applied to the fluorescence data and the pKa value was measured as the pH giving rise to half—maximal fluorescent intensity.

[2] = Encapsulation efficiency of lipid nanoparticles (Quant-it Ribogreen RNA assay); type: physicochemical; settings: LNP of cationic lipid/DSPC/cholesterol/PEG-lipid 50:10:38.5:1.5 with mRNA
Experimental: (§1) Briefly, a cationic lipid provided herein, DSPC, cholesterol, and PEG-lipid were solubilized in ethanol at a molar ratio of 50:10:38.5:1.5, and mRNA were diluted in 10 to 50 mM citrate buffer, pH=4. The LNPs were prepared at a total lipid to mRNA weight ratio of approximately 10:1 to 30:1 by mixing the ethanolic lipid solution with the aqueous mRNA solution at a volume ratio of 1:3 using a microfluidic apparatus, total flow rate ranging from 9-30 mL/min. Ethanol were thereby removed and replaced by DPBS using dialysis. Finally, the lipid nanoparticles were filtered through a 0.2 μm sterile filter.
(§2) Lipid nanoparticle size were determined by dynamic light scattering using a Malvern Zetasizer Nano ZS (Malvern UK) using a 173° backscatter detection mode. The encapsulation efficiency of lipid nanoparticles were determined using a Quant-it Ribogreen RNA quantification assay kit (Thermo Fisher Scientific, UK) according to the manufacturer's instructions.

[3] = Lipid nanoparticle size and polydispersity by dynamic light scattering; type: physicochemical; settings: LNP of cationic lipid/DSPC/cholesterol/PEG-lipid 50:10:38.5:1.5 with mRNA
Experimental: as §1, §2

Structure (SMILES) | Apparant Pka [1] | Encapsulation Efficiency [2] | polydispersity [3] | size (nm) [3]
CCCCCCCCCCCCCOP(=O)(NCCCN1CCCCC1)OCCCCCCCC(=O)OC(CCCCCCCC)CCCCCCCC (centres unmarked) [Compound 35] | 9.42 | 99.9% | 0.245 | 62.7 nm
CCCCCCCCC(CCCCCC)COP(=O)(NCCN(CCO)CCCC)OCC(CCCCCC)CCCCCCCC (centres unmarked) [Compound 54] | 5.644 | 88.8% | 0.037 | 138.5 nm
CCCCCCCCC(CCCCCC)COP(=O)(NCCCCN(C)C)OCC(CCCCCC)CCCCCCCC (centres unmarked) [Compound 22] | 7.37 | 98.7% | 0.101 | 79.13 nm
CCCCCCCCC(C)COP(=O)(NCCN(CC)CC)OCC(C)CCCCCCCC (centres unmarked) [Compound 69] | 7.408 | 87.1% | 0.355 | 68.3 nm
CCCCCCCCCCCCCOP(=O)(NCCN1CCCCC1)OCCCCCCCCCCCCC [Compound 13] | 7.79 | 96.5% | 0.034 | 130.5 nm
CCCCCCCCCCC(CCCCCCCCCC)COP(=O)(NCCN1CCCC1)OCC(CCCCCCCCCC)CCCCCCCCCC [Compound 87] | 6.303 | 93.8% | 0.045 | 66.05 nm
CCCCCCCCCCCCCOP(=O)(NCCN1CCC1)OCCCCCCCC(=O)OC(CCCCCCCC)CCCCCCCC (centres unmarked) [Compound 41] | 7.70 | 101.1% | 0.306 | 50.64 nm
CCCCCCCCC(CCCCCC)COP(=O)(NCCN(CCO)CCCCCC)OCC(CCCCCC)CCCCCCCC (centres unmarked) [Compound 56] | 5.253 | 92.5% | 0.264 | 139.3 nm
